Reference: patent US6921531B2, “Administering bifunctional molecules containing a drug moiety and presenter protein ligand for therapy” (The Board of Trustees of the Leland Stanford Junior …, priority 1998, dated 2005)
“Also recorded” adds a separate entry of the source. Read-outs that look alike come from different tables or passages of the source.

How the values were obtained:
Fyn SH2 domain = target: T1, Fyn SH2 domain (Homo sapiens, UniProt P06241); assay: Binding constants (Kd) for Fyn SH2 domain, isothermal titration calorimetry; conditions: ITC
T1 construct: The Fyn, Lck and PLC SH2 domains were expressed in bacteria as GST fusion proteins; GST (cleaved yes); made in house; host or cells: bacteria
Description: SLFpYEEI and FKpYEEI are bifunctional molecules that can bind FKBP12 and FKBP52 as well as the Fyn SH2 domain (FIG. 2). The binding constants (Kd values) of the bifunctional molecules for the three proteins were measured using isothermal titration calorimetry (ITC) (Table 1).
FIG. 6 is a graph of the competition binding curves for the Fyn SH2 domain and FKpYEEI as well as the Fyn SH2 domain and the peptide pYEEI in the absence and the presence of FKBP52. Fyn SH2 domain was incubated with peptide beads and increasing concentrations of FKpYEEI in the absence or presence of FKBP52. Specifically, in this assay, in 100 L binding reactions, radioactively labeled Fyn SH2 domain (200 nM) was incubated with 7.5 L of a 1:1 pYEEI bead slurry. Increasing concentrations of FKpYEEI or pYEEI (0.1-20.0 M) were added in the presence or absence of FKBP52 (4.5 M). The binding reactions were rotated at room temperature for 2 hours, centrifuged and analysed as described above. Half maximal binding (IC50) is observed at 750 riM FKpYEEI in the absence of FKBP52. […] Using ITC, the binding constant (Kd) for Fyn SH2 domain binding to the FKpYEEI-FKBP52 complex was determined.
FIG. 13 is a graph of the competition binding curves for the Fyn SH2 domain and SLFpYEEI in the absence and the presence of FKBP12. Fyn SH2 domain was incubated with increasing concentrations of SLFpYEEI in the absence or presence of FKBP12. In this assay, in 100 L binding reactions, radioactively labeled Fyn SH2 domain (200 nM) was incubated with 7.5 L of a 1:1 pYEEI bead slurry. Increasing concentrations of SLFpYEEI (0.1-20.0 M) were added in the presence or absence of FKBP12 (20 M). The binding reactions were rotated at room temperature for 2 hours, centrifuged and analysed as described above. […] This effect was confirmed by ITC.

PLC SH2 domain = assay: Competition binding assay of radioactive PLC SH2 domain to pYEEI beads; conditions: 1.0-1.5 μM ligand plus FKBP12 (0.5-4.0 μM or 2.0 μM)
Text: The pYEEI peptide was coupled to Affi-Gel 10 beads (Biorad) via its amino-group. The Fyn, Lck and PLC SH2 domains were expressed in bacteria as GST fusion proteins. The linker between the GST protein and the SH2 domain contained a thrombin cleavage site and a protein kinase A (PKA) phosphorylation site. The fusion protein on glutathione beads was radioactively labeled at the PKA phosphorylation site using PKA (Sigma). After extensive washing of the beads, the radioactive SH2 domain was released by cleavage with thrombin (Sigma). In a typical binding assay, 7.5 L of a 1:1 peptide bead slurry were incubated with the radioactive SH2 domain (200 nM) for 2 hours in 100 L of binding buffer (20 mM Tris pH7.2; 150 mM NaCl). In order to separate the radioactive protein bound to the beads, the binding reaction was transfered into a PCR tube (USA Scientific Plastic), whose bottom had been punctured with a 26gauge needle. The PCR tube was placed in a 0.5 mL Eppendorf tube which in turn was placed in a regular 1.5 mL Eppendorf tube. The tubes were spun for 1 second at maximal speed in an Eppendorf centrifuge resulting in the separation of the beads remaining in the PCR tube and the supernatant, which was collected in the 0.5 ml Eppendorf tube. The beads were resuspended in […] PBS and the radioactivity was counted in a liquid scintillation counter after addition of 3 ml scintillation fluid. The radioactivity remaining in the 100 L supernatant was counted in the same way. It was determined that under the conditions described 65% Fyn, 25% PLC and 15%Lck SH2 domain were bound to the beads. […]
The binary complex of FKpYEEI and FKBP 12 has the same affinity for the Fyn SH2 domain as free FKpYEEI (see FIG. 7). […] The binding reactions were rotated at room temperature for 2 hours, centrifuged and analysed as described above.
In this assay, in 100 L binding reactions, radioactively labeled PLC SH2 domain (400 nM) was incubated with 7.5 L of a 1:1 pYEEI bead slurry. […] The binding reactions were rotated at room temperature for 2 hours, centrifuged and analysed as described above. […]

[1] = ligand alone, no presenter protein, read-out: Binding constant (Kd) for Fyn SH2 domain, free ligand

T1 sequence (P06241 149-246 limits assumed): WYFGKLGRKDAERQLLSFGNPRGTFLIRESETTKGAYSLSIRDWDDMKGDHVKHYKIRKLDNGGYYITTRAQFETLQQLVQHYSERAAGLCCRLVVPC

SMILES	Kd (Fyn SH2 domain; in complex with FKBP52, read-out: Kd for Fyn SH2 domain binding to the FKpYEEI-FKBP52 complex) [nM]	Kd (Fyn SH2 domain; [1]) [nM]	Effect of FKBP12 on affinity for the PLC SH2 domain (PLC SH2 domain)
CC[C@H](C)[C@H](NC(=O)[C@H](CCC(=O)O)NC(=O)[C@H](CCC(=O)O)NC(=O)[C@H](Cc1ccc(OP(=O)(O)O)cc1)NC(=O)OCC[C@@H]1/C=C(\C)C[C@H](C)C[C@H](OC)[C@H]2O[C@@](O)(C(=O)C(=O)N3CCCC[C@H]3C(=O)O[C@H](/C(C)=C/[C@@H]3CC[C@@H](O)[C@H](OC)C3)[C@H](C)[C@@H](O)CC1=O)[C@H](C)C[C@@H]2OC)C(=O)O [FKpYEEI]	130	520	decreased affinity for the PLC SH2 domain; also recorded: reducing binding to the PLC SH2 domain
CC[C@H](C)[C@H](NC(=O)[C@H](CCC(=O)O)NC(=O)[C@H](CCC(=O)O)NC(=O)[C@H](Cc1ccc(OP(=O)(O)O)cc1)NC(=O)COc1cccc([C@@H](CCc2ccc(OC)c(OC)c2)OC(=O)[C@@H]2CCCCN2C(=O)C(=O)C(C)(C)CC)c1)C(=O)O [SLFpYEEI]	–	183	reduced binding
